The values below come from PubChem BioAssay AID558 (University of Pittsburgh Molecular Library Screening Center, 2006).

Activity calls are given as the source filed them. No rule for the calls is given here.

The assay has as its target Dual specificity protein phosphatase 1 (Homo sapiens) (UniProt P28562). In words: MKP-1 phosphatase inhibition under DTT, dose response, biochemical, DTT added, probe assessment (AID 558). Particulars: recombinant MKP-1 phosphatase, fluorescence, with DTT.

Chain of Dual specificity protein phosphatase 1 (Homo sapiens) (P28562 whole entry, looked up): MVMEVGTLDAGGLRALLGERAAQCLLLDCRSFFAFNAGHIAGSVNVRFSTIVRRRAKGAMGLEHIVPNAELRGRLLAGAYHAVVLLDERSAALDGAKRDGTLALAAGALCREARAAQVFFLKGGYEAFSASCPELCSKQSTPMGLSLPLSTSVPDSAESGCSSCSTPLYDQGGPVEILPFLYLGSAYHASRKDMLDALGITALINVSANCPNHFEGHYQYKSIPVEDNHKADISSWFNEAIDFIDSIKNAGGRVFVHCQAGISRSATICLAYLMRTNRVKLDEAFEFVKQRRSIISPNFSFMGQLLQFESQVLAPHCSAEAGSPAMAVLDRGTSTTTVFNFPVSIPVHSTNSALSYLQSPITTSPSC

Broadly, the IC50 is the point on the concentration scale where inhibition reaches its midpoint. Regarding `O=C1C(C2=C(O)c3ccccc3C2=O)=Nc2ccccc21`, the IC50 was > 50 µM (inactive).
